Data reported in patent publication US8071588B2, “Dual pharmacophores—PDE4-muscarinic antagonistics” (Glaxo Group Limited, priority 2008, dated 2011).

What was measured:
Human recombinant PDE4B = target: T1, Human recombinant PDE4B (Homo sapiens, UniProt Q07343); experiment: Inhibition of PDE activity: luciferase-coupled PDE assay (PDE4B); type: biochemical; settings: active if pIC50 of about 6 to 10.4 or greater against PDE4B; listed examples found to be the most active
T1 construct: made in house; host or cells: Saccharomyces cerevisiae strain GL62
Description: Human recombinant PDE4B, in particular the 2B splice variant thereof (HSPDE4B2B), is disclosed in WO 94/20079 and also in M. M. McLaughlin et al., “A low Km, rolipram-sensitive, cAMP-specific phosphodiesterase from human brain: cloning and expression of cDNA, biochemical characterization of recombinant protein, and tissue distribution of mRNA”, J. Biol. Chem., 1993, 268, 6470-6476. For example, in Example 1 of WO 94/20079, human recombinant PDE4B is described as being expressed in the PDE-deficient yeast Saccharomyces cerevisiae strain GL62. PDE4B expression is induced by the addition of 150 μM CuSO4.
For luminescence-coupled assay based screening the supernatant fractions of yeast cell lysates are subjected to Cibacron blue affinity chromatography, dialysis and desalting, to enrich for PDE4B and to remove components, e.g. ATP, able to interfere with the assay. Human recombinant PDE4D (HSPDE4D3A) is disclosed in P. A. Baecker et al., “Isolation of a cDNA encoding a human rolipram-sensitive cyclic AMP phosphodiesterase (PDE IVD)”, Gene, 1994, 138, 253-256. Expression of human PDE4D in yeast, and subsequent preparation of the recombinant protein for assay was as described for PDE4B.
Inhibition of PDE4B and PDE4D are measured using a luminescence-coupled assay system developed by Cambrex. This assay system couples the formation of AMP, derived from PDE4-catalyzed hydrolysis of cAMP, to the formation of ATP. The ATP is then used as a substrate for Luciferase and results in light as a signal output. […] The luminescence is then measured on a Viewlux imager (Perkin Elmer) using emission filters of 613/55 nm or 618/40 nm and a 5 second exposure. […] Curves were analyzed using ActivityBase and XL fit, and results are expressed as pIC50 values. […]
Curves were analyzed using ActivityBase and XLfit, and results are expressed as pIC50 values. […]

[1] = test system: M1, M2 (w/Gqi5) and M3 ACh receptors stably expressed in CHO cells; experiment: Calcium mobilization (FLIPR) IC50 determination for antagonists, inhibition of ACh induced muscarinic receptor activation; type: cell-based, human; settings: EC80 ACh, active if IC50 of between 33 uM and 10 nM or less, listed examples found to be the most active
Description: Studies to determine the effectiveness of antagonists to cause blockade of functional intracellular calcium fluxes following agonist (ACh) treatment of cloned human receptors.
This system is used for characterizations of antagonist-receptor interactions using four distinct variations of the FLIPR methodology: (a) potency: IC50 determination, (b) potency: pA2 determination, (c) reversibility of antagonist-receptor interaction, or (d) confirmation of no functional agonist activity. Cell Source The human M1-M3 receptors are cloned and stably expressed in Chinese Hamster Ovary (CHO) cells. The M2 receptors are co-expressed with the chimeric G protein, Gqi5. […] The emitted fluorescence from all 96 wells is measured simultaneously using a cooled CCD camera. […] Experimental Protocols: Cell plating: A microtiter plate based calcium mobilization FLIPR (Fluorometric Imaging Plate Reader, Molecular Devices, Sunnyvale Calif., [Schroeder K S, Neagle, B D. FLIPR: a new instrument for accurate, high throughput optical screening. J. Biomol. Screen. 1996; 1:75.]) assay is used for the functional characterization of compounds against M1, M2 (w/Gqi5) and M3 ACh receptors stably expressed in CHO cells. […]

T1 sequence (Q07343 1-564 isoform Q07343-2): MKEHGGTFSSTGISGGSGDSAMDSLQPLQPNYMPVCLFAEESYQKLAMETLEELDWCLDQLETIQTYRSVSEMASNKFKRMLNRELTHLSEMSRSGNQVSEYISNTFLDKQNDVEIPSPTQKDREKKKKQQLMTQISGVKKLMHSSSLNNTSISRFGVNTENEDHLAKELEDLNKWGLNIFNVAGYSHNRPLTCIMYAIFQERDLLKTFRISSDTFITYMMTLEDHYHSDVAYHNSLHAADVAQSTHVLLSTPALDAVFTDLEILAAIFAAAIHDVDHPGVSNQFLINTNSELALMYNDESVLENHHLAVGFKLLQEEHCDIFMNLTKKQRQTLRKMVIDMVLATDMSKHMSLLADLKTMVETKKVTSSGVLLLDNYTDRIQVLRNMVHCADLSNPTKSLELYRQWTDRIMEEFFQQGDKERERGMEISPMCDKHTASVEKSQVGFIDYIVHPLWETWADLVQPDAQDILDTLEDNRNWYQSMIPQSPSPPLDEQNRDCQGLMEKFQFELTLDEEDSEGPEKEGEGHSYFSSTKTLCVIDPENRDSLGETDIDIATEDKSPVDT

CCc1nc2c(cnn2CC)c(NC2CCOCC2)c1CNC(=O)CCC(=O)NCc1ccc(Cl)c(-c2cccc(CN3CCN[C@@H](C)C3)c2)c1 [Example 265, N-[(6-chloro-3′-{[(3S)-3-methyl-1-piperazinyl]methyl}-3-biphenylyl)methyl]-N′-{[1,6-diethyl-4-(tetrahydro-2H-pyran-4-ylamino)-1H-pyrazolo[3,4-b]pyridin-5-yl]methyl}butanediamide]
activity in the PDE4B assay (pIC50) (Human recombinant PDE4B): most active

CCc1nc2c(cnn2CC)c(NC2CCOCC2)c1CNC(=O)CC(=O)NCc1ccc(F)c(-c2cccc(CN3C[C@@H](C)N[C@@H](C)C3)c2)c1 [Example 217, N-{[1,6-diethyl-4-(tetrahydro-2H-pyran-4-ylamino)-1H-pyrazolo[3,4-b]pyridin-5-yl]methyl}-N′-[(3′-{[(3R,5S)-3,5-dimethyl-1-piperazinyl]methyl}-6-fluoro-3-biphenylyl)methyl]propanediamide]
activity in the PDE4B assay (pIC50) (Human recombinant PDE4B): most active

CCc1nc2c(cnn2CC)c(NC2CCOCC2)c1CNC(=O)CCC(=O)NCc1ccc(F)c(-c2cccc(CN3CCN[C@H](C)C3)c2)c1 [Example 267, N-{[1,6-diethyl-4-(tetrahydro-2H-pyran-4-ylamino)-1H-pyrazolo[3,4-b]pyridin-5-yl]methyl}-N′-[(6-fluoro-3′-{[(3R)-3-methyl-1-piperazinyl]methyl}-3-biphenylyl)methyl]butanediamide]
activity in the PDE4B assay (pIC50) (Human recombinant PDE4B): most active

CCc1nc2c(cnn2CC)c(NC2CCOCC2)c1CNC(=O)CCCC(=O)NCc1ccc(F)c(-c2cccc(CN3C[C@@H]4C[C@@H]3CN4Cc3ccccc3)c2)c1 [Example 193, N-{[1,6-diethyl-4-(tetrahydro-2H-pyran-4-ylamino)-1H-pyrazolo[3,4-b]pyridin-5-yl]methyl}-N′-[(6-fluoro-3′-{[(1R,4S)-5-(phenylmethyl)-2,5-diazabicyclo[2.2.1]hept-2-yl]methyl}-3-biphenylyl)methyl]pentanediamide]
activity in FLIPR antagonist IC50 assay (inhibition of ACh induced response) [1]: most active

CCc1nc2c(cnn2CC)c(NC2CCOCC2)c1CNC(=O)CC(=O)NCc1cccc(-c2cccc(CN3CCCNCC3)c2)c1 [Example 180, N-{[1,6-Diethyl-4-(tetrahydro-2H-pyran-4-ylamino)-1H-pyrazolo[3,4-b]pyridin-5-yl]methyl}-N′-{[3′-(hexahydro-1H-1,4-diazepin-1-ylmethyl)-3-biphenylyl]methyl}propanediamide]
activity in FLIPR antagonist IC50 assay (inhibition of ACh induced response) [1]: most active
